Reference: patent US11174251B2, “Compositions and methods for inhibition of the JAK pathway” (Rigel Pharmaceuticals, Inc., priority 2010, dated 2021)
Where a name gives a salt, the structure may show the parent alone.

molecular target: T1, JAK3 (Homo sapiens, UniProt P52333); test: Assay for CD23 expression on Ramos B-cells stimulated by IL-4 (Table IV: ability to inhibit JAK3 activity); assay type: cell-based; settings: tested under conditions described in Example 3 (so in the source)
T1 construct: The Ramos B-cell line was acquired from ATCC (ATCC Catalog No. CRL-1596); host or cells: Ramos B-cell line (human)
T1 sequence (P52333 1-1124): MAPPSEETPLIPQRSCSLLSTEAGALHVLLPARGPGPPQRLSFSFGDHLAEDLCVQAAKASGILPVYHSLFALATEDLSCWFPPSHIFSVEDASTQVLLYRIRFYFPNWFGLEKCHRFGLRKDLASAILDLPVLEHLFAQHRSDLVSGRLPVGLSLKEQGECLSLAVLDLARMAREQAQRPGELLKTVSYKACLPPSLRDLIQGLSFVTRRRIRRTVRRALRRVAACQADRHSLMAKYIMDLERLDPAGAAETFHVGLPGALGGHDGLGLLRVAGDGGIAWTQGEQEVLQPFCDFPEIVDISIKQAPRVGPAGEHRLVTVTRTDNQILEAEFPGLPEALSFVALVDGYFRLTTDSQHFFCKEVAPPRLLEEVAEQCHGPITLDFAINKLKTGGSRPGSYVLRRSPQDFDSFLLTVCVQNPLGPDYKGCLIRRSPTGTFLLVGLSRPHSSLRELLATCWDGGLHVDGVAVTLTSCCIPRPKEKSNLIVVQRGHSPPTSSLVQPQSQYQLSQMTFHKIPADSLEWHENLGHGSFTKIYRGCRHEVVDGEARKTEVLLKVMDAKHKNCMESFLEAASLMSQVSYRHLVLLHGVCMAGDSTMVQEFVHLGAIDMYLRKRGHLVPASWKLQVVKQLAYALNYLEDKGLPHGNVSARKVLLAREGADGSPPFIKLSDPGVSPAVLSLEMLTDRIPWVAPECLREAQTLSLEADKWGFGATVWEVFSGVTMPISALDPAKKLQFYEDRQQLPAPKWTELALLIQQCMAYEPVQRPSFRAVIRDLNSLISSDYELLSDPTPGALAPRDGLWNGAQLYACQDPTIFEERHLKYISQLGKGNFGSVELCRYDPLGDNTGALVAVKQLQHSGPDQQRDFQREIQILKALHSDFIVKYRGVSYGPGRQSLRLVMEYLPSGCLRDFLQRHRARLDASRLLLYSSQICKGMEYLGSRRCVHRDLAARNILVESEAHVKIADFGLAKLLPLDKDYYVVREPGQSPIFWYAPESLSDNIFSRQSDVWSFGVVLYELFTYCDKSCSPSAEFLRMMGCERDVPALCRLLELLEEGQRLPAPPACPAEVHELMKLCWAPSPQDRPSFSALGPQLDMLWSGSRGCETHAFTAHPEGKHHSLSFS
Method in brief: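 Human Ramos B cells in RPMI with 5% serum, pre-incubated 1 h at 37 °C with compound or DMSO, then stimulated with IL-4 (final 50 units/mL) for 20–24 h. Surface CD23 upregulation measured by FACS staining as readout of JAK1/JAK3–Stat-6 signalling.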

Structure (SMILES) | IC50
COc1cccc(Nc2ncc(Cl)c(Nc3ccc4oc(=O)[nH]c4c3)n2)c1F [Compound I-21, 5-(5-chloro-2-(2-fluoro-3-methoxyphenylamino)pyrimidin-4-ylamino)benzo[d]oxazol-2(3H)-one trifluoroacetate salt] | < 500 nM
COc1cc(Nc2ncc(C)c(Nc3ccc4oc(=O)[nH]c4c3)n2)cc(C)c1CO [Compound I-129, 4-(4-(2,3-dihydro-2-oxobenzo[d]oxazol-5-ylamino)-5-methylpyrimidin-2-ylamino)-2-methoxy-6-methylbenzyl alcohol trifluoroacetate salt] | < 500 nM
Cc1cnc(Nc2cc(C)c(C)c(C)c2)nc1Nc1ccc2oc(=O)n(C)c2c1 [Compound I-126, 5-(2-(3,4,5-trimethylphenylamino)-5-methylpyrimidin-4-ylamino)-3-methylbenzo[d]oxazol-2(3H)-one trifluoroacetate salt] | < 500 nM
Cc1cc(C)cc(Nc2ncc(Cl)c(Nc3ccc4oc(=O)[nH]c4c3)n2)c1 [Compound I-10, 5-(5-chloro-2-(3,5-dimethylphenylamino)pyrimidin-4-ylamino)benzo[d]oxazol-2(3H)-one trifluoroacetate salt] | < 500 nM
COC(=O)c1cnc(Nc2cc(C)c(C)c(OC)c2)nc1Nc1ccc2oc(=O)[nH]c2c1 [Compound I-59, 2-(3-Methoxy-4,5-dimethyl-phenylamino)-4-(2-oxo-2,3-dihydro-benzooxazol-5-ylamino)-pyrimidine-5-carboxylic acid methyl ester trifluoroacetate salt] | > 10000 nM
COc1cc(Nc2ncc(F)c(Nc3cc(C)c4oc(=O)[nH]c4c3)n2)cc(C)c1C [Compound I-110, 5-(5-fluoro-2-(3-methoxy-4,5-dimethylphenylamino)pyrimidin-4-ylamino)-7-methylbenzo[d]oxazol-2(3H)-one trifluoroacetate salt] | < 500 nM
Cc1cnc(Nc2cc(C)c(C)c(C)c2)nc1Nc1cc(CN2CCN(C(=O)OC(C)(C)C)CC2)c2oc(=O)[nH]c2c1 [Compound I-94, tert-butyl 4-((5-(2-(3,4,5-trimethylphenylamino)-5-methylpyrimidin-4-ylamino)-2,3-dihydro-2-oxobenzo[d]oxazol-7-yl)methyl)piperazine-1-carboxylate] | 5000 to 10000 nM
COc1cc(Nc2ncc(C)c(Nc3cc(C)c4oc(=O)[nH]c4c3)n2)cc(C)c1C [Compound I-109, 5-(2-(3-methoxy-4,5-dimethylphenylamino)-5-methylpyrimidin-4-ylamino)-7-methylbenzo[d]oxazol-2(3H)-one trifluoroacetate trifluoroacetate salt] | < 500 nM
COc1cc(Nc2ncc(Cl)c(Nc3ccc4oc(=O)[nH]c4c3)n2)cc(C)c1C [Compound I-52, 5-(5-chloro-2-(3-methoxy-4,5-dimethylphenylamino)pyrimidin-4-ylamino)benzo[d]oxazol-2(3H)-one] | < 500 nM
COc1cccc(Nc2ncc(C)c(Nc3ccc4oc(=O)[nH]c4c3)n2)c1F [Compound I-19, 5-[2-(2-Fluoro-3-methoxy-phenylamino)-5-methyl-pyrimidin-4-ylamino]-3H-benzooxazol-2-one] | < 500 nM
NC(=O)c1cccc(Nc2nccc(Nc3ccc4oc(=O)[nH]c4c3)n2)c1 [Compound I-3, 3-(4-(2-oxo-2,3-dihydrobenzo[d]oxazol-5-ylamino)pyrimidin-2-ylamino)benzamide trifluoroacetate salt] | 500 to 5000 nM
O=c1[nH]c2cc(Nc3nc(Nc4ccc5ccccc5c4)ncc3[N+](=O)[O-])ccc2o1 [II-6, 5-(2-(naphthalen-2-ylamino)-5-nitropyrimidin-4-ylamino)benzo[d]oxazol-2(3H)-one trifluoroacetate salt] | > 10000 nM
Cc1ccc(Nc2ncc(C)c(Nc3ccc4oc(=O)[nH]c4c3)n2)nc1C [II-21, N2-(5,6-dimethylpyridin-2-yl)-5-methyl-N4-(2-oxo-2,3-dihydro-1,3-benzoxazol-5-yl)-2,4-pyrimidinediamine] | 500 to 5000 nM
Cc1cnc(Nc2ncc(C)c(Nc3ccc4oc(=O)[nH]c4c3)n2)cc1C [II-14, N2-(4,5-dimethylpyridin-2-yl)-5-methyl-N4-(2-oxo-2,3-dihydro-1,3-benzoxazol-5-yl)-2,4-pyrimidinediamine] | > 10000 nM
Cc1cnc(Nc2cc(C)c(Br)c(C)c2)nc1Nc1ccc2oc(=O)[nH]c2c1 [Compound I-149, N2-(4-bromo-3,5-dimethyl)phenyl-5-methyl-N4-(2-oxo-2,3-dihydro-1,3-benzoxazol-5-yl)-2,4-pyrimidinediamine] | < 500 nM
CC(=O)c1ccc(Nc2ncc(F)c(Nc3ccc4oc(=O)[nH]c4c3)n2)cc1 [Compound I-157, 5-(2-(4-acetylphenylamino)-5-fluoropyrimidin-4-ylamino)benzo[d]oxazol-2(3H)-one formate salt] | < 500 nM
Cc1cc(Nc2ncc(CO)c(Nc3ccc4oc(=O)[nH]c4c3)n2)cc(C)c1F [Compound I-79, 5-(2-(4-fluoro-3,5-dimethylphenylamino)-5-(hydroxymethyl)pyrimidin-4-ylamino)benzo[d]oxazol-2(3H)-one trifluoroacetate salt] | < 500 nM
COc1cc(Nc2ncc(F)c(Nc3cc(F)c4oc(=O)[nH]c4c3)n2)cc(C)c1OC [Compound I-184, 5-(2-(3,4-dimethoxy-5-methylphenylamino)-5-fluoropyrimidin-4-ylamino)-7-fluorobenzo[d]oxazol-2(3H)-one trifluoroacetate salt] | < 500 nM
COc1cc(Nc2ncc(F)c(Nc3ccc4oc(=O)[nH]c4c3)n2)cc(OC)c1C [Compound I-194, 5-(2-(3,5-dimethoxy-4-methylphenylamino)-5-fluoropyrimidin-4-ylamino)benzo[d]oxazol-2(3H)-one trifluoroacetate salt] | 500 to 5000 nM
CCNC(=O)c1ccc(Nc2ncc(F)c(Nc3ccc4oc(=O)[nH]c4c3)n2)cc1 [Compound I-162, N-ethyl-4-(5-fluoro-4-(2-oxo-2,3-dihydrobenzo[d]oxazol-5-ylamino)pyrimidin-2-ylamino)benzamide formate salt] | < 500 nM
Cc1cnc(Nc2cccc(N(C)C)c2)nc1Nc1ccc2oc(=O)[nH]c2c1 [Compound I-24, 5-[2-(3-Dimethylamino-phenylamino)-5-methyl-pyrimidin-4-ylamino]-3H-benzooxazol-2-one trifluoroacetate salt] | < 500 nM
COc1cc(Nc2ncc(C)c(Nc3ccc4oc(=O)n(C)c4c3)n2)cc(C)c1F [Compound I-127, 5-(2-(4-fluoro-3-methoxy-5-methylphenylamino)-5-methylpyrimidin-4-ylamino)-3-methylbenzo[d]oxazol-2(3H)-one trifluoroacetate salt] | < 500 nM
Cc1cnc(Nc2cc(C)c(C)c(C)c2)nc1Nc1cc(CN2CCN(C)CC2)c2oc(=O)[nH]c2c1 [Compound I-93, 5-(2-(3,4,5-trimethylphenylamino)-5-methylpyrimidin-4-ylamino)-7-((4-methylpiperazin-1-yl)methyl)benzo[d]oxazol-2(3H)-one] | 500 to 5000 nM
Cc1cc(Nc2ncc(F)c(Nc3ccc4oc(=O)[nH]c4c3)n2)cc(C)c1C [Compound I-214, 5-fluoro-N2-(3,4,5-trimethyl)phenyl-N4-(2-oxo-2,3-dihydro-1,3-benzoxazol-5-yl)-2,4-pyrimidinediamine] | > 10000 nM
